Drawing on ChEMBL document CHEMBL5727836, “Treatment of infectious diseases with glucose uptake inhibitors” (2020), this text covers IC50 for 48 compounds.

The assay is described as follows: ATP Assay: HT1080 cells (as well as other cell types) were plated to confluency in 96-well plates. Cells were exposed to the combination of 10 μM Oligomycin (to block mitochondrial-derived ATP), and the glucose uptake inhibitor compounds for one-hour, after which glycolytically-dervied ATP was measured with the Cell Titer-Glo assay kit (Promega). Dose-response curves of the glucose uptake inhibitor compounds were used to determine the IC50 for GLUT activity. Particulars: HT-1080, 1 h.

Take `CC(C)NC(=O)COc1cccc(-c2nc(Nc3ccc(-c4cn[nH]c4)cc3)c3cnn(C)c3n2)c1`: the IC50 result is “in the range around 375 nM”.

Take `CC(C)NC(=O)COc1cccc(-c2nc(Nc3ccc(-c4cn[nH]c4)cc3)c3ncsc3n2)c1`: the IC50 result was “in the range around 375 nM”.

Turning to `CC(C)NC(=O)COc1cccc(-c2nc(Nc3ccc(-c4cn[nH]c4)cc3)c3ccncc3n2)c1`, the IC50 entry is “in the range around 55 nM”.

Turning to `CC(C)NC(=O)COc1cccc(-c2nc(Nc3ccc(-c4cn[nH]c4)cc3)c3cnccc3n2)c1`, the IC50 entry was “in the range around 55 nM”.

Take `CC(=O)N1CCc2nc(-c3cccc(OCC(=O)NC(C)C)c3)nc(Nc3ccc(-c4cn[nH]c4)cc3)c2C1`: the IC50 entry is “in the range around 175 nM”.

As to `CC(=O)N1CCc2nc(-c3cccc(OCC(=O)NC(C)(C)C)c3)nc(Nc3ccc(-c4cn[nH]c4)cc3)c2C1`, the IC50 entry is “in the range around 55 nM”.

As to `CC(C)NC(=O)COc1cccc(-c2nc3c(c(Nc4ccc(-c5cn[nH]c5)cc4)n2)CN(C(=O)C(C)C)CC3)c1`, the IC50 entry was “in the range around 55 nM”.

Regarding `CCC(C)NC(=O)COc1cccc(-c2nc3c(c(Nc4ccc(-c5cn[nH]c5)cc4)n2)COC3)c1` (stereo not drawn), the IC50 result is “in the range around 55 nM”.

Consider `Cn1ncc2c(Nc3ccc(-c4cn[nH]c4)cc3)nc(-c3cccc(OCC(=O)NC4CCC4)c3)nc21`, for which the IC50 result was “in the range around 375 nM”.

Regarding `CC(=O)N1CCc2nc(-c3cccc(OCC(=O)NCC(C)C)c3)nc(Nc3ccc(-c4cn[nH]c4)cc3)c2C1`, the IC50 entry is “in the range around 55 nM”.

For `O=C(COc1cccc(-c2nc(Nc3ccc(-c4cn[nH]c4)cc3)c3sccc3n2)c1)NC1CCCC1`, the IC50 result was “in the range around 55 nM”.

On to `O=C(COc1cccc(-c2nc(Nc3ccc(-c4cn[nH]c4)cc3)c3sccc3n2)c1)NC1CCC1`, for which the IC50 result is “in the range around 175 nM”.

`CCC(CC)NC(=O)COc1cccc(-c2nc3c(c(Nc4ccc(-c5cn[nH]c5)cc4)n2)CN(C(C)=O)CC3)c1`: the IC50 result was “in the range around 55 nM”.

As to `O=C(COc1cccc(-c2nc3c(c(Nc4ccc(-c5cn[nH]c5)cc4)n2)COCC3)c1)NC1CCC1`, the IC50 result was “in the range around 55 nM”.

In the case of `O=C(COc1cccc(-c2nc3c(c(Nc4ccc(-c5cn[nH]c5)cc4)n2)CSC3)c1)NC1CCC1`, the IC50 entry was “in the range around 175 nM”.

For the compound `CCC(CC)NC(=O)COc1cccc(-c2nc3c(c(Nc4ccc(-c5cn[nH]c5)cc4)n2)COC3)c1`, the IC50 entry was “in the range around 55 nM”.

In the case of `O=C(COc1cccc(-c2nc(Nc3ccc(-c4cn[nH]c4)cc3)c3occc3n2)c1)NC1CCC1`, the 50% inhibitory concentration (IC50) entry is “in the range around 375 nM”.

Regarding `O=C(COc1cccc(-c2nc(Nc3ccc(-c4cn[nH]c4)cc3)c3ncsc3n2)c1)NC1CCC1`, the IC50 result is “in the range around 375 nM”.

With `O=C(COc1cccc(-c2nc(Nc3ccc(-c4cn[nH]c4)cc3)c3ccncc3n2)c1)NC1CCCC1`, the IC50 result was “in the range around 55 nM”.

In the case of `CC(=O)N1Cc2nc(-c3cccc(OCC(=O)NC(C)C)c3)nc(Nc3ccc(-c4cn[nH]c4)cc3)c2C1`, the IC50 result was “in the range around 175 nM”.

For `CCC(C)(C)NC(=O)COc1cccc(-c2nc(Nc3ccc(-c4cn[nH]c4)cc3)c3sccc3n2)c1`, the IC50 result was “in the range around 175 nM”.

In the case of `CC(C)(C)CNC(=O)COc1cccc(-c2nc3c(c(Nc4ccc(-c5cn[nH]c5)cc4)n2)COC3)c1`, the IC50 entry was “in the range around 55 nM”.

`CC(C)NC(=O)COc1cccc(-c2nc3c(c(Nc4ccc(-c5cn[nH]c5)cc4)n2)COCC3)c1`: the IC50 entry was “in the range around 55 nM”.

`CC(=O)N1CCc2nc(-c3cccc(OCC(=O)NC4CCCC4)c3)nc(Nc3ccc(-c4cn[nH]c4)cc3)c2C1`: the IC50 result is “in the range around 55 nM”.

Turning to `CC(C)NC(=O)COc1cccc(-c2nc3c(c(Nc4ccc(-c5cn[nH]c5)cc4)n2)CSC3)c1`, the IC50 result is “in the range around 375 nM”.

For the compound `CC(C)(C)NC(=O)COc1cccc(-c2nc3c(c(Nc4ccc(-c5cn[nH]c5)cc4)n2)COC3)c1`, the IC50 entry is “in the range around 55 nM”.

As for `CCC(C)NC(=O)COc1cccc(-c2nc3c(c(Nc4ccc(-c5cn[nH]c5)cc4)n2)COCC3)c1` (stereo not drawn), the IC50 entry is “in the range around 55 nM”.

Turning to `O=C(CN1CCOCC1)Nc1cccc(-c2nc(Nc3ccc(-c4cn[nH]c4)cc3)c3ccsc3n2)c1`, the IC50 result was “in the range around 175 nM”.

`CC(C)CNC(=O)COc1cccc(-c2nc3c(c(Nc4ccc(-c5cn[nH]c5)cc4)n2)COC3)c1`: the IC50 entry was “in the range around 55 nM”.

Regarding `Cn1ncc2c(Nc3ccc(-c4cn[nH]c4)cc3)nc(-c3cccc(OCC(=O)NC4CCCC4)c3)nc21`, the IC50 entry was “in the range around 175 nM”.

For the compound `CC(=O)N1Cc2nc(-c3cccc(OCC(=O)NC(C)(C)C)c3)nc(Nc3ccc(-c4cn[nH]c4)cc3)c2C1`, the IC50 entry is “in the range around 55 nM”.

For the compound `O=C(COc1cccc(-c2nc(Nc3ccc(-c4cn[nH]c4)cc3)c3occc3n2)c1)NC1CCCC1`, the IC50 result is “in the range around 375 nM”.

With `CC(C)CNC(=O)COc1cccc(-c2nc(Nc3ccc(-c4cn[nH]c4)cc3)c3ncccc3n2)c1`, the IC50 entry was “in the range around 175 nM”.

Regarding `O=C(COc1cccc(-c2nc(Nc3ccc(-c4cn[nH]c4)cc3)c3ncsc3n2)c1)NC1CCCC1`, the IC50 result is “in the range around 175 nM”.

For `CC(C)(C)NC(=O)COc1cccc(-c2nc(Nc3ccc(-c4cn[nH]c4)cc3)c3cnccc3n2)c1`, the IC50 result is “in the range around 55 nM”.

For `CC(C)CNC(=O)COc1cccc(-c2nc3c(c(Nc4ccc(-c5cn[nH]c5)cc4)n2)COCC3)c1`, the IC50 entry is “in the range around 55 nM”.

Regarding `CC(C)(C)CNC(=O)COc1cccc(-c2nc3c(c(Nc4ccc(-c5cn[nH]c5)cc4)n2)COCC3)c1`, the IC50 result is “in the range around 55 nM”.

For `Cn1cnc2c(Nc3ccc(-c4cn[nH]c4)cc3)nc(-c3cccc(OCC(=O)NC4CCC4)c3)nc21`, the IC50 result is “in the range around 375 nM”.

For the compound `CC(C)NC(=O)COc1cccc(-c2nc(Nc3ccc4[nH]ncc4c3)c3sccc3n2)c1`, the half-inhibitory concentration (IC50) entry was “in the range around 55 nM”.

`CC(C)CNC(=O)COc1cccc(-c2nc(Nc3ccc(-c4cn[nH]c4)cc3)c3cnn(C)c3n2)c1`: the IC50 result was “in the range around 175 nM”.

For the compound `O=C(COc1cccc(-c2nc3c(c(Nc4ccc(-c5cn[nH]c5)cc4)n2)COCC3)c1)NC1CCCC1`, the IC50 entry is “in the range around 55 nM”.

`CCC(CC)NC(=O)COc1cccc(-c2nc3c(c(Nc4ccc(-c5cn[nH]c5)cc4)n2)CN(C(C)=O)C3)c1`: the IC50 entry is “in the range around 55 nM”.

With `O=C(COc1cccc(-c2nc(Nc3ccc(-c4cn[nH]c4)cc3)c3sccc3n2)c1)NC1CC1`, the IC50 is 750 nM.

For `CC(C)CNC(=O)COc1cccc(-c2nc(Nc3ccc(-c4cn[nH]c4)cc3)c3ncsc3n2)c1`, the IC50 result is “in the range around 375 nM”.

In the case of `O=C(COc1cccc(-c2nc(Nc3ccc(-c4cn[nH]c4)cc3)c3ccncc3n2)c1)NC1CCC1`, the IC50 entry is “in the range around 55 nM”.

For `O=C(COc1cccc(-c2nc3c(c(Nc4ccc(-c5cn[nH]c5)cc4)n2)CSC3)c1)NC1CCCC1`, the IC50 entry is “in the range around 175 nM”.

For `CC(C)(C)NC(=O)COc1cccc(-c2nc(Nc3ccc(-c4cn[nH]c4)cc3)c3sccc3n2)c1`, the IC50 entry is “in the range around 175 nM”.

On to `O=C(COc1cccc(-c2nc3c(c(Nc4ccc(-c5cn[nH]c5)cc4)n2)COC3)c1)NC1CC(F)(F)C1`, for which the IC50 result is “in the range around 175 nM”.
